# Data reported in PMC8036666, “Biological and Physico-Chemical Characteristics of Arginine-Rich Peptide Gemini Surfactants with Lysine and Cystine Spacers” (International Journal of Molecular Sciences, 2021).
# “And” between values parts separate entries of the source, which are not always exact repeats. Equal values may be shown once. Read-outs that look alike come from different tables or passages of the source. Where a SMILES comes first, the peptide text is derived from it. Bridges are numbered along the chain shown (N, C = ends). Roman numbers before positions name the chains, in order. Side-chain parts run from the residue outwards. The star is where a group is joined. Myristoyl = CCCCCCCCCCCCCC(=O)*; Lauroyl = CCCCCCCCCCCC(=O)*; Decanoyl = CCCCCCCCCC(=O)*; Octanoyl = CCCCCCCC(=O)*
# Tests used:
# [1] = Lipopeptide hydrophobicity by RP-HPLC (adjusted retention time); type: physicochemical; conditions: for Adjusted Retention Time: RP-HPLC, 20–65% acetonitrile over 30 min, indicator of hydrophobicity
# Protocol: (§1) The identity of the purified peptides was confirmed with electrospray ionization mass spectrometry (ESI-MS) in positive ion mode. Results of MS analyses and net charge are attached in Supplementary Materials (Table S1). Peptides’ hydrophobicity was evaluated by analytical reversed-phase high-performance liquid chromatography (RP-HPLC). The critical aggregation concentrations (CACs) of the lipopeptides were determined in unbuffered aqueous solution at 298 K by measuring the surface tension as a function of lipopeptide concentration. The measurements were carried out by the Du Noüy ring method on a K100 tensiometer. The surface tension data were plotted against the logarithm of lipopeptide concentration. CAC was found as the intersection of two lines being linear regression of data below and above CAC.
# Lipopeptide hydrophobicity was determined as described previously. To do this, a Waters Alliance e2695 system with a Waters 2998 PDA Detector (software-Empower 3, Waters, Milford, MA, USA) was used. All analyses were carried out on a Waters X-Bridge Shield RP-18 column (3.0 × 100 mm, 3.5 μm particle size, 130 Å pore size). The Shield Technology column with embedded polar groups was used to minimize interactions of unreacted silanol groups with basic lipopeptides. The peptides were dissolved in water (0.1% TFA, v/v) up to a concentration of 1 mg/mL. UV detection at 214 nm was used, and samples (10 μL) were eluted with a linear 20–65% acetonitrile gradient in deionized water over 30 min at 25.0 ± 0.1 °C. The mobile phase flow rate was 0.5 mL/min. Both eluents contained 0.1% (v/v) of TFA. Each peptide sample was analyzed in triplicate. The maximum standard deviation and coefficient of variation were 0.044 and 0.85%, respectively.
# HaCaT cells = type: cell-based, human; conditions: 24 h
# Protocol: Cells were trypsinized, and the medium was renewed 2–3 times per week. The cytotoxicity of compounds was assessed by the determination of cell metabolic activity by colorimetric CellTilter 96® Aqueous One Solution Cell Proliferation Assay (Promega, Madison, WI, USA), according to the manufacturer’s instructions. […] Every compound was medium-soluble in 37 °C; thus, the control cells were cultured with the medium. Serial dilutions of the tested compounds were always prepared prior to use. Cells were incubated with drugs for 24 h, and then, 20 μL of the CellTiter 96®AqueousOne Solution Reagent was added to each well containing cells maintained in 100 μL of culture medium.
# C. albicans ATCC 10231 = test system: C. albicans ATCC 10231
# Protocol: (§2) The Acinetobacter baumannii ATCC BAA-1605, Enterococcus faecium ATCC 700221, Escherichia coli ML-35 ATCC 43827, Klebsiella aerogenes ATCC 13048, Klebsiella pneumoniae ATCC 700603, Pseudomonas aeruginosa ATCC 9027, Staphylococcus aureus ATCC 25923, Staphylococcus aureus ATCC 33591, Candida albicans ATCC 10231, Candida glabrata ATCC 15126, strains were acquired from the American Type Culture Collection (ATCC). All the strains were stored at −80 °C in Roti-Store cryo vials and before the tests were transferred into fresh Mueller–Hinton broth (MHB, Biocorp, Warsaw, Poland) for bacteria or RPMI-1640 (Sigma-Aldrich, Steinheim, Germany) for fungi and incubated for 24 h at 37 °C. Then, the cultures were seeded on the Mueller–Hinton agar (BioMaxima, Lublin, Poland) or Sabouraud dextrose agar (SDA, BioMaxima, Lublin, Poland) plates, respectively, and incubated as just mentioned. These agar cultures were used for further microbiological assays. Cell densities for all assays were adjusted spectrophotometrically (Multiskan GO Microplate Spectrophotometer, Thermo Fisher Scientific, Vantaa, Finland) at 600 and 530 nm for bacteria and fungi, respectively.
# (§3) The MICs were determined by the broth microdilution method according to the Clinical and Laboratory Standard Institute guidelines. For this purpose, initial inoculums of bacteria (5 × 10^5 CFU/mL) in MHB and yeasts (2 × 10^3 CFU/mL) in RPMI-1640 with 2% D-glucose were exposed to the ranging concentration of lipopeptides (0.5–256 μg/mL) and incubated at 37 °C for 18 h and 24 h, respectively. The experiments were conducted on 96-well microtiter polystyrene plates (Kartell, Noviglio, Italy). The growth was assessed visually after incubation, and the MIC was assumed as the lowest peptide concentration at which a noticeable growth of microorganisms was inhibited. All experiments were conducted in triplicate.
# C. glabrata ATCC 15126 = test system: C. glabrata ATCC 15126
# Protocol: as §2, §3
# [2] = Critical aggregation concentration by surface tension (Du Noüy ring, K100 tensiometer); type: physicochemical; conditions: unbuffered aqueous solution, 298 K
# Protocol: as §1
# The critical aggregation concentration (CAC) values were determined fully automatically using a K100 tensiometer (KRUSS, Hamburg, Germany) equipped with two micro dosimeters by measuring the surface tension vs. lipopeptide concentration. The measurements were performed in unbuffered aqueous solution at 298 K using the Du Noüy ring method. The accuracy of the surface tension measurements was 0.1 mN/m. The critical aggregation concentration (CAC) was defined as the intersection of two lines fitted to the experimental data collected before and after the inflection point.
# [3] = test system: human red blood cells (hRBCs); assay: Hemolysis assay; type: cell-based; conditions: red cells of human, 1 h
# Protocol: The hemolysis assay was performed by using the method reported previously. Fresh human red blood cells (hRBCs) with anticoagulant (EDTA) were rinsed three times with a PBS by centrifugation at 800× g for 10 min and diluted with PBS. The compounds were serially diluted on a 96-well microtiter polystyrene plate, and hRBCs were added up to a final volume of 100 μL. The compound concentration ranged between 0.5 and 256 μg/mL and the final hRBCs concentration was 4% (v/v). Controls for zero (blank) and 100% hemolysis consisted of hRBCs suspended in PBS and 1% of Triton-X 100 (Carl Roth GmbH, Karlsruhe, Germany), respectively. The plate was incubated for 1 h at 37 °C and then centrifuged (800× g, 10 min, 4 °C). Subsequently, the supernatant was […] to new microtiter plates, and the absorbance at 540 nm was measured (Multiskan GO Microplate Spectrophotometer, Thermo Fisher Scientific, Vantaa, Finland). All experiments were conducted in triplicate. HC50 was calculated using an ic50.tk tool. The protocol of the study was approved by the local Bioethics Committee at the Medical University of Gdańsk (NKBBN/262/2019, approval date: 10 June 2019).
SMILES,Adjusted Retention Time [1] [min],IC50 (HaCaT cells) [µg/mL],MIC C. albicans ATCC 10231 (C. albicans ATCC 10231; planktonic culture),MIC C. glabrata ATCC 15126 (C. glabrata ATCC 15126; planktonic culture),CAC [2],Surface Tension at CAC [2] [mN/m],"MIC C. albicans ATCC 10231 (C. albicans ATCC 10231; ATCC 10231, 24 h) [µg/mL]","MIC C. glabrata ATCC 15126 (C. glabrata ATCC 15126; ATCC 15126, 24 h) [µg/mL]",HC50 [3] [µg/mL],Difference in retention time calculated as tR’C—tR’B ([1]; between corresponding surfactants of series C and B) [min]
"CCCCCCCC(=O)N[C@@H](CCCNC(=N)N)C(=O)N[C@@H](CCCNC(=N)N)C(N)=O [Compound A1, C8-RR-NH2] (Octanoyl-Arg-Arg-NH2)",2.93,>500,>256 (−/−) µg/mL,>256 (−/−) µg/mL,,,,,,
"CCCCCCCCCC(=O)N[C@@H](CCCNC(=N)N)C(=O)N[C@@H](CCCNC(=N)N)C(N)=O [Compound A2, C10-RR-NH2] (Decanoyl-Arg-Arg-NH2)",7.74,>500,>256 (−/−) µg/mL,>256 (−/−) µg/mL,,,,,,
"CCCCCCCCCCCC(=O)N[C@@H](CCCNC(=N)N)C(=O)N[C@@H](CCCNC(=N)N)C(N)=O [Compound A3, C12-RR-NH2] (Lauroyl-Arg-Arg-NH2)",12.15,153.50 ± 8.13,,,7.48 mM and 3827.3 μg/mL,38,64,128,,
"CCCCCCCCCCCCCC(=O)N[C@@H](CCCNC(=N)N)C(=O)N[C@@H](CCCNC(=N)N)C(N)=O [Compound A4, C14-RR-NH2] (Myristoyl-Arg-Arg-NH2)",16.31,46.48 ± 3.65,,,1.67 mM and 899.7 μg/mL,35,8,16,,
CCCCCCCC(=O)N[C@@H](CCCNC(=N)N)C(=O)N[C@@H](CCCNC(=N)N)C(=O)NCCCC[C@H](NC(=O)[C@H](CCCNC(=N)N)NC(=O)[C@H](CCCNC(=N)N)NC(=O)CCCCCCC)C(N)=O [Compound B1] (Octanoyl-Arg-Arg-Lys([Arg-Arg-Octanoyl])-NH2),8.11,378.40 ± 93.71,,,,,64,64,>256,
CCCCCCCCCC(=O)N[C@@H](CCCNC(=N)N)C(=O)N[C@@H](CCCNC(=N)N)C(=O)NCCCC[C@H](NC(=O)[C@H](CCCNC(=N)N)NC(=O)[C@H](CCCNC(=N)N)NC(=O)CCCCCCCCC)C(N)=O [Compound B2] (Decanoyl-Arg-Arg-Lys([Arg-Arg-Decanoyl])-NH2),13.73,150.03 ± 3.15,,,3.69 mM and 3980.0 μg/mL,36,8,4,>256,
CCCCCCCCCCCC(=O)N[C@@H](CCCNC(=N)N)C(=O)N[C@@H](CCCNC(=N)N)C(=O)NCCCC[C@H](NC(=O)[C@H](CCCNC(=N)N)NC(=O)[C@H](CCCNC(=N)N)NC(=O)CCCCCCCCCCC)C(N)=O [Compound B3] (Lauroyl-Arg-Arg-Lys([Arg-Arg-Lauroyl])-NH2),19.09,26.42 ± 4.24,,,0.87 mM and 987.3 μg/mL,41,2,2,56.29 ± 6.50,
CCCCCCCCCCCCCC(=O)N[C@@H](CCCNC(=N)N)C(=O)N[C@@H](CCCNC(=N)N)C(=O)NCCCC[C@H](NC(=O)[C@H](CCCNC(=N)N)NC(=O)[C@H](CCCNC(=N)N)NC(=O)CCCCCCCCCCCCC)C(N)=O [Compound B4] (Myristoyl-Arg-Arg-Lys([Arg-Arg-Myristoyl])-NH2),25.33,32.39 ± 4.49,,,0.31 mM and 365.7 μg/mL,40,4,2,44.12 ± 4.70,
CCCCCCCC(=O)N[C@@H](Cc1ccccc1)C(=O)N[C@@H](CCCNC(=N)N)C(=O)N[C@@H](CCCNC(=N)N)C(=O)NCCCC[C@H](NC(=O)[C@H](CCCNC(=N)N)NC(=O)[C@H](CCCNC(=N)N)NC(=O)[C@H](Cc1ccccc1)NC(=O)CCCCCCC)C(N)=O [Compound B5] (Octanoyl-FRRK([Arg-Arg-Phe-Octanoyl])-NH2),15.19,169.13 ± 32.80,,,2.47 mM and 3247.9 μg/mL,39,16,16,181.38 ± 8.99,
CCCCCCC(CCCC)C(=O)N[C@@H](CCCNC(=N)N)C(=O)N[C@@H](CCCNC(=N)N)C(=O)NCCCC[C@H](NC(=O)[C@H](CCCNC(=N)N)NC(=O)[C@H](CCCNC(=N)N)NC(=O)C(CCCC)CCCCCC)C(N)=O (stereo partly shown) [Compound B7],14.68,78.78 ± 6.93,,,,,8,16,>256,
CCCCCCCC(=O)N[C@@H](CCCNC(=N)N)C(=O)N[C@@H](CCCNC(=N)N)C(=O)N[C@@H](CSSC[C@H](NC(=O)[C@H](CCCNC(=N)N)NC(=O)[C@H](CCCNC(=N)N)NC(=O)CCCCCCC)C(N)=O)C(N)=O [Compound C1] (I: Octanoyl-Arg-Arg-Cys-NH2 / II: Octanoyl-Arg-Arg-Cys-NH2; disulfide I:3-II:3),8.26,>500,,,,,128,64,>256,0.15
